From patent US10123984B2, “Neprilysin inhibitors” (THERAVANCE BIOPHARMA R&D IP, LLC, priority 2011, dated 2018)

Key:
NEP [1] = biological target: T1, NEP (Homo sapiens (Human), UniProt P08473); test: Assay 1: in vitro enzyme inhibition assay at human NEP (fluorogenic peptide substrate); assay type: biochemical; conditions: pKi values at human NEP
NEP [2] = biological target: T1, NEP; conditions: relative to 21a (succinic acid substituent); quoted from Ksander et al.; cited from earlier work
[3] = comparative examples, exact values

Row | Ki (NEP [1]; [3]) | Compound | further results
1 | 200 nM | O=C(O)CC(=O)N[C@H](Cc1ccc(-c2ccccc2)cc1)CC(O)C(=O)O (stereo partly drawn) [Comparative Compound C, (R)-5-Biphenyl-4-yl-4-(2-carboxyacetylamino)-2-hydroxypentanoic Acid] | –
2 | 39.8 nM | O=C(O)CCC(=O)N[C@H](Cc1ccc(-c2ccccc2)cc1)CC(O)C(=O)O (stereo partly drawn) [Comparative Compound D, (R)-5-Biphenyl-4-yl-4-(3-carboxypropionylamino)-2-hydroxypentanoic Acid] | –
3 | 50.1 nM | O=C(O)CCCC(=O)N[C@H](Cc1ccc(-c2ccccc2)cc1)CC(O)C(=O)O (stereo partly drawn) [Comparative Compound E, (R)-5-Biphenyl-4-yl-4-(4-carboxybutyrylamino)-2-hydroxypentanoic Acid] | –
4 | 6.31 nM | O=C(O)CC(=O)N[C@H](Cc1ccc(-c2ccccc2)cc1)C[C@@H](CO)C(=O)O [Comparative Compound F, (2S,4S)-5-Biphenyl-4-yl-4-(2-carboxy-acetylamino)-2-hydroxymethylpentanoic Acid] | –
5 | 1 nM | O=C(O)CCC(=O)N[C@H](Cc1ccc(-c2ccccc2)cc1)C[C@@H](CO)C(=O)O [Comparative Compound G, (2S,4S)-5-Biphenyl-4-yl-4-(3-carboxy-propionylamino)-2-hydroxymethylpentanoic Acid] | –
6 | 2.51 nM | O=C(O)CCCC(=O)N[C@H](Cc1ccc(-c2ccccc2)cc1)C[C@@H](CO)C(=O)O [Comparative Compound H, (2S,4S)-5-Biphenyl-4-yl-4-(4-carboxy-butyrylamino)-2-hydroxymethylpentanoic Acid] | –
7 | – | O=C(N[C@H](Cc1ccc(-c2cccc(Cl)c2)cc1)C[C@@H](O)C(=O)O)C(=O)OCCC(F)(F)F [Example 2N, (2R,4R)-5-(3′-Chlorobiphenyl-4-yl)-2-hydroxy-4-[(3,3,3-trifluoropropoxyoxalyl)-amino]pentanoic Acid] | pKi (NEP [1]; reported as ranges): ≥9
8 | – | CC(C)COC(=O)C(=O)N[C@H](Cc1ccc(-c2cc(Cl)ccc2Cl)cc1)C[C@@H](O)C(=O)O [Example 3D, (2R,4R)-5-(2′,5′-Dichlorobiphenyl-4-yl)-2-hydroxy-4-(isobutoxyoxalylamino)-pentanoic Acid] | Ki (NEP [1]; reported as ranges): ≤ 1 nM
9 | – | O=C(O)C(=O)N[C@H](Cc1ccc(-c2ccccc2F)cc1)C[C@@H](CO)C(=O)O [Example 7B, (2S,4S)-5-(2′-Fluorobiphenyl-4-yl)-2-hydroxymethyl-4-(oxalylamino)pentanoic Acid] | Ki (NEP [1]; reported as ranges): ≤ 1 nM
10 | – | O=C(O)C(=O)NN(Cc1ccc(-c2cc(Cl)ccc2F)cc1)C[C@@H](O)C(=O)O [Example 14A, (R)-3-[N-(5′-Chloro-T-fluorobiphenyl-4-ylmethyl)-N-oxalylhydrazino]-2-hydroxypropionic Acid] | Ki (NEP [1]; reported as ranges): ≤ 1 nM
11 | – | CC(C)COC(=O)C(=O)NN(Cc1ccc(-c2cc(Cl)ccc2F)cc1)C[C@@H](O)C(=O)O [Example 14C, (R)-3-[N-(5′-Chloro-2′-fluorobiphenyl-4-ylmethyl)-N′-isobutoxyoxalylhydrazino]-2-hydroxypropionic Acid] | Ki (NEP [1]; reported as ranges): 1.26 to 10 nM
12 | – | C[C@H](C[C@@H](Cc1ccc(-c2ccccc2)cc1)NC(=O)CCCC(=O)O)C(=O)O [Example 21e] | decrease in activity (NEP [2]): 18 fold
13 | – | C[C@H](C[C@@H](Cc1ccc(-c2ccccc2)cc1)NC(=O)CCCCC(=O)O)C(=O)O [Example 21f] | decrease in activity (NEP [2]): 65 fold
14 | – | C[C@H](CC(Cc1ccc(-c2ccccc2)cc1)NC(=O)CC(=O)O)C(=O)O (stereo partly drawn) [Example 21g] | decrease in activity (NEP [2]): 18 fold
15 | – | (2R,4R)-5-(3,3′-Dichlorobiphenyl-4-yl)-2-hydroxy-4-(oxalylamino)pentanoic acid ethyl ester [Example 5-17] | pKi (NEP [1]; reported as ranges): ≥9
16 | – | (R)-3-N-(3,5′-Dichloro-2′-fluorobiphenyl-4-ylmethyl)-N′-oxalyl-hydrazinol-2-hydroxypropionic acid [Example 5-13] | pKi (NEP [1]; reported as ranges): ≥9

Row | Compound | Ki (NEP [1]; [3]) | further results
17 | O=C(O)CC(=O)N[C@H](Cc1ccc(-c2cccc(Cl)c2)cc1)C[C@@H](O)C(=O)O [Comparative Compound I, (2R,4R)-4-(2-Carboxy-acetylamino)-5-(3′-chloro-biphenyl-4-yl)-2-hydroxy-pentanoic Acid] | 3.98 nM | –
18 | O=C(O)CCC(=O)N[C@H](Cc1ccc(-c2cccc(Cl)c2)cc1)C[C@@H](O)C(=O)O [Comparative Compound J, (2R,4R)-4-(3-Carboxy-propionylamino)-5-(3′-chloro-biphenyl-4-yl)-2-hydroxy-pentanoic Acid] | 0.316 nM | –
19 | O=C(O)CCCC(=O)N[C@H](Cc1ccc(-c2cccc(Cl)c2)cc1)C[C@@H](O)C(=O)O [Comparative Compound K, (2R,4R)-4-(4-Carboxy-butyrylamino)-5-(3′-chloro-biphenyl-4-yl)-2-hydroxy-pentanoic Acid] | 0.501 nM | –
20 | O=C(O)C(=O)N[C@H](Cc1ccc(-c2ccccc2)cc1)CC(O)C(=O)O (stereo partly drawn) [Example 1, (R)-5-Biphenyl-4-yl-2-hydroxy-4-(oxalylamino)pentanoic Acid] | 12.6 nM | –
21 | O=C(O)C(=O)N[C@H](Cc1ccc(-c2cccc(Cl)c2)cc1)C[C@@H](O)C(=O)O [Example 2A, (2R,4R)-5-(3′-Chlorobiphenyl-4-yl)-2-hydroxy-4-(oxalylamino)pentanoic Acid] | 0.2 nM | –
